The source made the active and inactive calls. The calls are words filed in the database; no cut-off is given here.
Experiments:
[1] = test system: K562; test: Antiproliferative activity against human K562 cells assessed as reduction in cell viability measured after 72 hrs; format: functional, cell-based; settings: K562, 72 h
[2] = test system: MOLM-13; test: Antiproliferative activity against human MOLM-13 cells assessed as reduction in cell viability measured after 72 hrs; format: functional, cell-based; settings: MOLM-13, 72 h
[3] = test system: A549; test: Antiproliferative activity against human A549 cells assessed as reduction in cell viability measured after 72 hrs; format: functional, cell-based; settings: A549, 72 h
[4] = test system: A549/TR; test: Antiproliferative activity against paclitaxel resistant human A549T cells assessed as reduction in cell viability measured after 72 hrs; format: functional, cell-based
[5] = test system: NCI/ADR-RES; test: Antiproliferative activity against human MCF7ADR cells assessed as reduction in cell viability measured after 72 hrs; format: functional, cell-based
[6] = test system: A2780S; test: Induction of cell cycle arrest in human A2780S cells assessed as accumulation of cells at G0/G1 phase at 10 nM measured after 24 hrs by propidium iodide staining based analysis (reference value: 51.71%); format: functional
[7] = test system: A2780S; test: Induction of cell cycle arrest in human A2780S cells assessed as accumulation of cells at G0/G1 phase at 100 nM measured after 24 hrs by propidium iodide staining based analysis (reference value: 51.71%); format: functional
[8] = test system: A2780S; test: Induction of cell cycle arrest in human A2780S cells assessed as accumulation of cells at G0/G1 phase at 300 nM measured after 24 hrs by propidium iodide staining based analysis (reference value: 51.71%); format: functional
[9] = test system: A2780S; test: Induction of cell cycle arrest in human A2780S cells assessed as accumulation of cells at G2/M phase at 30 nM measured after 24 hrs by propidium iodide staining based analysis (reference value: 18.43%); format: functional
[10] = test system: A2780S; test: Induction of cell cycle arrest in human A2780S cells assessed as accumulation of cells at G2/M phase at 100 nM measured after 24 hrs by propidium iodide staining based analysis (reference value: 18.43%); format: functional
[11] = test system: A2780S; test: Induction of cell cycle arrest in human A2780S cells assessed as accumulation of cells at S phase at 10 nM measured after 24 hrs by propidium iodide staining based analysis (reference value: 29.85%); format: functional
[12] = test system: A2780S; test: Induction of cell cycle arrest in human A2780S cells assessed as accumulation of cells at S phase at 100 nM measured after 24 hrs by propidium iodide staining based analysis (reference value: 29.85%); format: functional
[13] = test system: A2780S; test: Induction of cell cycle arrest in human A2780S cells assessed as accumulation of cells at S phase at 300 nM measured after 24 hrs by propidium iodide staining based analysis (reference value: 29.85%); format: functional
[14] = test system: A2780/Taxol; test: Induction of cell cycle arrest in human A2780T cells assessed as accumulation of cells at G0/G1 phase at 300 nM measured after 24 hrs by propidium iodide staining based analysis (reference value: 46.141%); format: functional
[15] = test system: A2780/Taxol; test: Induction of cell cycle arrest in human A2780T cells assessed as accumulation of cells at G2/M phase at 10 nM measured after 24 hrs by propidium iodide staining based analysis (reference value: 24.13%); format: functional
[16] = test system: A2780/Taxol; test: Induction of cell cycle arrest in human A2780T cells assessed as accumulation of cells at G2/M phase at 300 nM measured after 24 hrs by propidium iodide staining based analysis (reference value: 24.13%); format: functional
[17] = test system: A2780/Taxol; test: Induction of cell cycle arrest in human A2780T cells assessed as accumulation of cells at S phase at 10 nM measured after 24 hrs by propidium iodide staining based analysis (reference value: 29.73%); format: functional
[18] = test system: A2780/Taxol; test: Induction of cell cycle arrest in human A2780T cells assessed as accumulation of cells at S phase at 30 nM measured after 24 hrs by propidium iodide staining based analysis (reference value: 29.73%); format: functional
[19] = test system: A2780/Taxol; test: Induction of cell cycle arrest in human A2780T cells assessed as accumulation of cells at S phase at 100 nM measured after 24 hrs by propidium iodide staining based analysis (reference value: 29.73%); format: functional
[20] = test system: A2780/Taxol; test: Induction of cell cycle arrest in human A2780T cells assessed as accumulation of cells at S phase at 300 nM measured after 24 hrs by propidium iodide staining based analysis (reference value: 29.73%); format: functional
[21] = test system: A2780/Taxol; test: Induction of apoptosis in human A2780T cells assessed as total number of late apoptotic cells at 300 nM measured after 48 hrs by Annexin-V-FITC and PI staining based flow cytometry analysis (reference value: 3.42%); format: functional
[22] = test system: A2780S; test: Antitumor activity against human A2780S cells xenografted in mouse model assessed as tumor growth inhibition at 20 mg/kg, iv administered every two days for 12 days relative to control; format: functional; settings: 288 h, time 12 day, read-out: TGI
[23] = Toxicity in mouse xenografted with human A2780S cells assessed as effect on body weight at 10 to 30 mg/kg, iv measured upto 12 days; format: organism-based; settings: in vivo, 288 h, dose 10-30 mg/kg, time < 12 day
[24] = Toxicity in mouse xenografted with human A2780T cells assessed as effect on body weight at 10 to 30 mg/kg, iv measured upto 18 days; format: organism-based, A2780/Taxol; settings: in vivo, 432 h, dose 10-30 mg/kg, time < 18 day
[25] = Toxicity in mouse xenografted with human A2780T cells assessed as side effects at 10 to 30 mg/kg, iv measured upto 18 days; format: organism-based, A2780/Taxol; settings: in vivo, 432 h, dose 10-30 mg/kg, time < 18 day
[26] = Tmax in male Sprague-Dawley rat at 10 mg/kg, iv; format: ADME, organism-based; settings: in vivo
[27] = Clearance in male Sprague-Dawley rat at 10 mg/kg, iv; format: ADME, organism-based; settings: in vivo
[28] = Cmax in male Sprague-Dawley rat at 10 mg/kg, iv; format: ADME, organism-based; settings: in vivo
[29] = Half life in male Sprague-Dawley rat at 10 mg/kg, po; format: ADME, organism-based; settings: in vivo
[30] = Tmax in male Sprague-Dawley rat at 10 mg/kg, po; format: ADME, organism-based; settings: in vivo
[31] = Volume of distribution at steady state in male Sprague-Dawley rat at 10 mg/kg, po; format: ADME, organism-based; settings: in vivo
[32] = AUC (0 to t) in male Sprague-Dawley rat at 10 mg/kg, po; format: ADME, organism-based; settings: in vivo
[33] = biological target: T1, Tubulin (Homo sapiens) (UniProt P68371+Q9H4B7+P0DPH7+P68366+Q13509+Q71U36+P04350+Q3ZCM7+P07437+P68363+Q9BQE3+Q6PEY2+Q13885+Q9BVA1+Q9BUF5); test: Induction of tubulin degradation in human HeLa cells at 1 uM measured after 24 hrs by immunoblot analysis; format: cell-based
[34] = biological target: T1, Tubulin (Homo sapiens); test: Inhibition of tubulin polymerization (unknown origin) preincubated for 5 mins with compound followed by GTP addition and measured upto 40 mins; format: protein-complex assay; settings: dose 5-10 µM, time <= 45.0 min
[35] = biological target: Tubulin beta (Homo sapiens) (UniProt P68371+Q9H4B7+Q13509+P04350+Q3ZCM7+P07437+Q13885+Q9BVA1+Q9BUF5+A6NNZ2); test: Binding affinity to beta-tubulin colchicine binding site in human HeLa cells assessed as inhibition of EBI-beta-tubulin adduct band formation by EBI competition based Western blot analysis; format: cell-based; settings: dose 0.2-25 µM
[36] = test system: MCF7; test: cells; settings: Homo sapiens, MCF7, 72 h
Description: Antiproliferative activity against human MCF7 cells assessed as reduction in cell viability measured after 72 hrs

IC50 [1]: 30 nM
IC50 [2]: 20 nM
IC50 [3]: 34 nM
IC50 [4]: 37 nM
Tmax [26]: 4.8 min
clearance [27]: 42.5 mL/min/kg
Cmax [28]: 2890 ng/mL
half-life [29]: 5.94 h
Tmax [30]: 3.67 h
Vdss [31]: 154.68 L/kg
AUC(0-t) [32]: 447 ng·h/mL
Activity [33]: Active
inhibition [34]: Dose-Dependent Effect
Activity [35]: Dose-Dependent Effect
IC50 [36]: 20 nM
SMILES: COc1cccc(-c2cc(NCc3ccc4[nH]ccc4c3)nc(N)n2)c1
IC50 [5]: 32 nM
Activity [6]: 48.57%
Activity [7]: 20.38%
Activity [8]: 1.54%
Activity [9]: 23.82%
Activity [10]: 42.46%
Activity [11]: 29.27%
Activity [12]: 37.17%
Activity [13]: 16.35%
Activity [14]: 4.64%
Activity [15]: 20.61%
Activity [16]: 83.98%
Activity [17]: 32.91%
Activity [18]: 35.74%
Activity [19]: 9.12%
Activity [20]: 11.38%
Activity [21]: 15.57%
inhibition in vivo at 20 mg/kg [22]: 63.6%
Activity [23]: Non-Toxic
Activity [24]: Non-Toxic
Activity [25]: Toxic

— ChEMBL document CHEMBL5543108, “Structure-based design and synthesis of BML284 derivatives: A novel class of colchicine-site noncovalent tubulin degradation agents” (Eur J Med Chem, 2024)
